Where two headings read alike, the source gives them in different places. Where a SMILES comes first, the peptide text is derived from it. Bridges are numbered along the chain shown (N, C = ends). Where no end group is shown, it is not given here.
What was measured:
H. pylori J99 lpxF [1] = tested on: H. pylori J99 lpxF
H. pylori J99 lpxR [2] = tested on: H. pylori J99 lpxR
H. pylori J99 Wild Type [3] = tested on: H. pylori J99 Wild Type
H. pylori J99 lpxE [4] = tested on: H. pylori J99 lpxE
H. pylori J99 lpxE/F [5] = tested on: H. pylori J99 lpxE/F
H. pylori B128 lpxE = assay type: cell-based, Helicobacter pylori; conditions: Polymyxin B E-Test strips on TSA with 5% blood, average of three experiments
H. pylori X47 lpxF = assay type: cell-based, Helicobacter pylori; conditions: Polymyxin B E-Test strips on TSA with 5% blood, average of three experiments
H. pylori J99 lpxR [6] = assay type: cell-based, Helicobacter pylori; conditions: Polymyxin B E-Test strips on TSA with 5% blood, average of three experiments
H. pylori X47 Wild Type = assay type: cell-based, Helicobacter pylori; conditions: Polymyxin B E-Test strips on TSA with 5% blood, average of three experiments
[7] = tested on: H. pylori wild type strains; conditions: cited from earlier work
Method: Resistance to CAMPs is of great importance to all mucosal pathogens. This is especially true for H. pylori whose only known reservoir is the human gastric mucosal surface. H. pylori is highly resistant to the CAMP polymyxin B (PMB) with the minimal inhibitory concentration (MIC) of wild type strains ranging from 250–1000 µg/ml peptide. […] MICs were determined for all strains using PMB Etest strips. H. pylori wild type strain J9 ...

H. pylori X47 lpxE/F = assay type: cell-based, Helicobacter pylori; conditions: Polymyxin B E-Test strips on TSA with 5% blood, average of three experiments
H. pylori X47 lpxE = assay type: cell-based, Helicobacter pylori; conditions: Polymyxin B E-Test strips on TSA with 5% blood, average of three experiments
H. pylori B128 lpxE/F = assay type: cell-based, Helicobacter pylori; conditions: Polymyxin B E-Test strips on TSA with 5% blood, average of three experiments
H. pylori J99 Wild Type [8] = assay type: cell-based, Helicobacter pylori; conditions: Polymyxin B E-Test strips on TSA with 5% blood, average of three experiments
H. pylori J99 lpxF [9] = assay type: cell-based, Helicobacter pylori
[10] = tested on: H. pylori J99 lpxF, lpxF+; assay type: cell-based, Helicobacter pylori; conditions: Polymyxin B E-Test strips on TSA with 5% blood, average of three experiments
H. pylori B128 Wild Type = assay type: cell-based, Helicobacter pylori; conditions: Polymyxin B E-Test strips on TSA with 5% blood, average of three experiments
[11] = tested on: H. pylori B128 lpxE, lpxE+; assay type: cell-based, Helicobacter pylori; conditions: Polymyxin B E-Test strips on TSA with 5% blood, average of three experiments
H. pylori J99 lpxE/F [12] = assay type: cell-based, Helicobacter pylori
[13] = tested on: H. pylori X47 lpxF, lpxF+; assay type: cell-based, Helicobacter pylori; conditions: Polymyxin B E-Test strips on TSA with 5% blood, average of three experiments
H. pylori B128 lpxF = assay type: cell-based, Helicobacter pylori; conditions: Polymyxin B E-Test strips on TSA with 5% blood, average of three experiments
H. pylori J99 lpxE [14] = assay type: cell-based, Helicobacter pylori

CC[C@H](C)[C@@H]1NC(=O)[C@@H]2CSSC[C@@H]3NC(=O)[C@H](Cc4ccccc4)NC(=O)[C@H](C)NC(=O)[C@H](Cc4c[nH]c5ccccc45)NC(=O)[C@H](CC(C)C)NC(=O)[C@H](CCCNC(=N)N)NC(=O)CNC(=O)[C@H](CCC(N)=O)NC(=O)[C@H](Cc4ccc(O)cc4)NC(=O)[C@H]([C@@H](C)CC)NC(=O)[C@H](CSSC[C@H](NC(=O)[C@H](Cc4ccc(O)cc4)NC(=O)[C@@H](N)CSSC[C@@H](C(=O)O)NC3=O)C(=O)N[C@@H](CCCNC(=N)N)C(=O)N[C@@H]([C@@H](C)CC)C(=O)N3CCC[C@H]3C(=O)N[C@@H](C)C(=O)N2)NC(=O)[C@H]([C@@H](C)O)NC(=O)CNC(=O)[C@H](Cc2ccc(O)cc2)NC(=O)[C@H](CCCNC(=N)N)NC(=O)[C@H](CCCNC(=N)N)NC(=O)[C@H](CCC(=O)O)NC(=O)CNC(=O)[C@H](C)NC1=O [HNP2] (H-CYCRIPACIAGERRYGTCIYQGRLWAFCC-OH; disulfide 1-29, 3-18, 8-28 (inferred); N-terminus and C-terminus assumed)
Minimal Inhibitory Concentration (MIC) (H. pylori J99 lpxF [1]; J99 lpxF, 48 h): >25 µg/mL | Minimal Inhibitory Concentration (MIC) (H. pylori J99 lpxR [2]; J99 lpxR, 48 h): >25 µg/mL | Minimal Inhibitory Concentration (MIC) (H. pylori J99 Wild Type [3]; J99 Wild Type, 48 h): >25 µg/mL | Minimal Inhibitory Concentration (MIC) (H. pylori J99 lpxE [4]; J99 lpxE, 48 h): >25 µg/mL | Minimal Inhibitory Concentration (MIC) (H. pylori J99 lpxE/F [5]; J99 lpxE/F, 48 h): >25 µg/mL

CC[C@H](C)[C@H](NC(=O)[C@H](CCCCN)NC(=O)[C@H](CCC(=O)O)NC(=O)[C@H](CCCCN)NC(=O)[C@H](CO)NC(=O)[C@H](CCCCN)NC(=O)[C@H](CCCNC(=N)N)NC(=O)[C@H](Cc1ccccc1)NC(=O)[C@H](Cc1ccccc1)NC(=O)[C@H](CC(=O)O)NC(=O)CNC(=O)[C@H](CC(C)C)NC(=O)[C@@H](N)CC(C)C)C(=O)NCC(=O)N[C@@H](CCCCN)C(=O)N[C@@H](CCC(=O)O)C(=O)N[C@@H](Cc1ccccc1)C(=O)N[C@@H](CCCCN)C(=O)N[C@@H](CCCNC(=N)N)C(=O)N[C@H](C(=O)N[C@H](C(=O)N[C@@H](CCC(N)=O)C(=O)N[C@@H](CCCNC(=N)N)C(=O)N[C@H](C(=O)N[C@@H](CCCCN)C(=O)N[C@@H](CC(=O)O)C(=O)N[C@@H](Cc1ccccc1)C(=O)N[C@@H](CC(C)C)C(=O)N[C@@H](CCCNC(=N)N)C(=O)N[C@@H](CC(N)=O)C(=O)N[C@@H](CC(C)C)C(=O)N[C@H](C(=O)N1CCC[C@H]1C(=O)N[C@@H](CCCNC(=N)N)C(=O)N[C@H](C(=O)N[C@@H](CCC(=O)O)C(=O)N[C@@H](CO)C(=O)O)[C@@H](C)O)C(C)C)[C@@H](C)CC)C(C)C)[C@@H](C)CC [LL37]
Minimal Inhibitory Concentration (MIC) (H. pylori J99 lpxF [1]; J99 lpxF, 48 h): 19 ± 2 µg/mL | Minimal Inhibitory Concentration (MIC) (H. pylori J99 lpxR [2]; J99 lpxR, 48 h): 41 ± 6 µg/mL | Minimal Inhibitory Concentration (MIC) (H. pylori J99 Wild Type [3]; J99 Wild Type, 48 h): 40 ± 5 µg/mL | Minimal Inhibitory Concentration (MIC) (H. pylori J99 lpxE [4]; J99 lpxE, 48 h): 40 ± 0 µg/mL | Minimal Inhibitory Concentration (MIC) (H. pylori J99 lpxE/F [5]; J99 lpxE/F, 48 h): 11 ± 1 µg/mL

AKKVFKRLEKLFSKIQNDK [HP2.20]
Minimal Inhibitory Concentration (MIC) (H. pylori J99 lpxF [1]; J99 lpxF, 48 h): 60 ± 0 µg/mL | Minimal Inhibitory Concentration (MIC) (H. pylori J99 lpxR [2]; J99 lpxR, 48 h): >1250 µg/mL | Minimal Inhibitory Concentration (MIC) (H. pylori J99 Wild Type [3]; J99 Wild Type, 48 h): >1250 µg/mL | Minimal Inhibitory Concentration (MIC) (H. pylori J99 lpxE [4]; J99 lpxE, 48 h): 583 ± 29 µg/mL | fold decrease in resistance (H. pylori J99 lpxE/F [5]; J99 double lpxE/F mutant versus wild type, broth dilution MICs): ≥ 60 fold | Minimal Inhibitory Concentration (MIC) (H. pylori J99 lpxE/F [5]; J99 lpxE/F, 48 h): 18 ± 3 µg/mL

AKRHHGYKRKFH-NH2 (C-terminus assumed) [P113]
Minimal Inhibitory Concentration (MIC) (H. pylori J99 lpxF [1]; J99 lpxF, 48 h): 178 ± 3 µg/mL | Minimal Inhibitory Concentration (MIC) (H. pylori J99 lpxR [2]; J99 lpxR, 48 h): >400 µg/mL | Minimal Inhibitory Concentration (MIC) (H. pylori J99 Wild Type [3]; J99 Wild Type, 48 h): >400 µg/mL | Minimal Inhibitory Concentration (MIC) (H. pylori J99 lpxE [4]; J99 lpxE, 48 h): 341 ± 14 µg/mL | Minimal Inhibitory Concentration (MIC) (H. pylori J99 lpxE/F [5]; J99 lpxE/F, 48 h): 141 ± 14 µg/mL

GIGDPVTCLKSGAICHPVFCPRRYKQIGTCGLPGTKCCKKP (disulfide 8-37, 15-30, 20-38 (inferred)) [HBD2]
Minimal Inhibitory Concentration (MIC) (H. pylori J99 lpxF [1]; J99 lpxF, 48 h): 12 ± 1 µg/mL | Minimal Inhibitory Concentration (MIC) (H. pylori J99 lpxR [2]; J99 lpxR, 48 h): >25 µg/mL | Minimal Inhibitory Concentration (MIC) (H. pylori J99 Wild Type [3]; J99 Wild Type, 48 h): >25 µg/mL | Minimal Inhibitory Concentration (MIC) (H. pylori J99 lpxE [4]; J99 lpxE, 48 h): 23 ± 3 µg/mL | Minimal Inhibitory Concentration (MIC) (H. pylori J99 lpxE/F [5]; J99 lpxE/F, 48 h): 5.0 ± 1.0 µg/mL

polymyxin B
Polymyxin MIC (H. pylori B128 lpxE): 26.7 ± 4.6 µg/mL | Minimal Inhibitory Concentration (MIC) (H. pylori J99 lpxF [1]): 3.8 ± 0.3 µg/mL | Polymyxin MIC (H. pylori X47 lpxF): 2.3 ± 0.6 µg/mL | Minimal Inhibitory Concentration (MIC) (H. pylori J99 lpxR [2]): >250 µg/mL | Polymyxin MIC (H. pylori J99 lpxR [6]): 512.0 ± 0.0 µg/mL | Polymyxin MIC (H. pylori J99 lpxR [6]; listed as PMB): 512 ± 0.0 µg/mL | Polymyxin MIC (H. pylori X47 Wild Type): 768.0 ± 0.0 µg/mL | Minimal Inhibitory Concentration (MIC) [7]: 250 to 1000 µg/mL | Polymyxin MIC (H. pylori X47 lpxE/F): 0.55 ± 0.08 µg/mL | Polymyxin MIC (H. pylori X47 lpxE): 37.3 ± 9.2 µg/mL | Polymyxin MIC (H. pylori B128 lpxE/F): 0.61 ± 0.04 µg/mL | Minimal Inhibitory Concentration (MIC) (H. pylori J99 Wild Type [3]): >250 µg/mL | Polymyxin MIC (H. pylori J99 Wild Type [8]): 469.3 ± 73.9 µg/mL | fold decrease in resistance (increase in sensitivity) to PMB (H. pylori J99 lpxF [9]; J99 lpxF mutant versus wild type J99, Etest MICs): 360 fold | Polymyxin MIC (H. pylori J99 lpxF [9]; J99 lpxF, Polymyxin B E-Test strips on TSA with 5% blood, average of three experiments): 1.3 ± 0.3 µg/mL | Polymyxin MIC [10]: 512.0 ± 0.0 µg/mL | Polymyxin MIC (H. pylori B128 Wild Type): 213.3 ± 37.0 µg/mL | Polymyxin MIC [11]: 234.7 ± 37.0 µg/mL | fold decrease in resistance (increase in sensitivity) to PMB (H. pylori J99 lpxE/F [12]; J99 double lpxE/F mutant versus wild type J99, Etest MICs): 1020 fold | Polymyxin MIC (H. pylori J99 lpxE/F [12]; J99 lpxE/F, Polymyxin B E-Test strips on TSA with 5% blood, average of three experiments): 0.46 ± 0.03 µg/mL | Polymyxin MIC [13]: 682.7 ± 147.8 µg/mL | Polymyxin MIC (H. pylori B128 lpxF): 1.8 ± 0.3 µg/mL | Minimal Inhibitory Concentration (MIC) (H. pylori J99 lpxE [4]): 22 ± 2 µg/mL | Minimal Inhibitory Concentration (MIC) (H. pylori J99 lpxE/F [5]): 0.6 ± 0.1 µg/mL | fold decrease in resistance (increase in sensitivity) to PMB (H. pylori J99 lpxE [14]; J99 lpxE mutant versus wild type J99, Etest MICs): 16 fold | Polymyxin MIC (H. pylori J99 lpxE [14]; J99 lpxE, Polymyxin B E-Test strips on TSA with 5% blood, average of three experiments): 29.3 ± 4.6 µg/mL

From paper PMC3245313, “Helicobacter pylori versus the Host: Remodeling of the Bacterial Outer Membrane Is Required for Survival in the Gastric Mucosa” (PLoS Pathogens, 2011)
